The values that follow come from ChEMBL document CHEMBL4152347 (J Med Chem, 2018).

Structures are written as SMILES.

Data set [1] is described as follows: in vivo. As to conditions: Sprague-Dawley, rat, po, 5 mg/kg.
Data set [2] has as its system Human immunodeficiency virus 1. In words: microbe, parasite or virus in culture. As to conditions: Human immunodeficiency virus 1, MT2.
Description: Antiviral activity against wild type HIV1 infected in human MT2 cells after 4 to 5 days in presence of 10% FBS and 40% human serum albumin by dual luciferase reporter gene assay
A short description of data set [3]: in vitro. To be noted: human, liver microsomes. In general terms: Microsomes from liver hold many membrane-bound enzymes, among them those of drug oxidation.
Description: Half life in human liver microsomes at 0.5 uM after 1 hr in presence of NADPH by LC-MS/MS analysis
The nature of data set [4]: in vitro. To be noted: human, MT2 cells.
Description: Cytotoxicity against human MT2 cells assessed as reduction in cell viability
Data set [5] is described as follows: in vitro. As to conditions: rat, liver microsomes.
Description: Half life in rat liver microsomes at 0.5 uM after 1 hr in presence of NADPH by LC-MS/MS analysis
The next data set is described as follows: physchem. To be noted: aqueous.
The subject of data set [6] is Human immunodeficiency virus 1. In words: microbe, parasite or virus in culture. As to conditions: Human immunodeficiency virus 1, MT2. This is another data set of the same source.
Description: Antiviral activity against HIV1 expressing gag delta V370 mutant infected in human MT2 cells after 4 to 5 days by dual luciferase reporter gene assay
Data set [7] concerns Human immunodeficiency virus 1. In words: microbe, parasite or virus in culture. To be noted: Human immunodeficiency virus 1, MT2. The source holds these as a separate data set.
Data set [8] has as its system Human immunodeficiency virus 1. In words: microbe, parasite or virus in culture. As to conditions: Human immunodeficiency virus 1, MT2. This is another data set of the same source.
Description: Antiviral activity against wild type HIV1 infected in human MT2 cells after 4 to 5 days by dual luciferase reporter gene assay
The nature of data set [9]: Dissociation constant, pKa of the compound. In kind it is physicochemical.
A short description of data set [10]: in vivo. To be noted: Sprague-Dawley, rat, po, 5 mg/kg. The source holds these as a separate data set.

Description for physchem: Aqueous solubility of the compound

For `C=C(C)[C@@H]1CC[C@]2(NCCN3CCN(S(C)(=O)=O)CC3)CC[C@]3(C)[C@H](CC[C@@H]4[C@@]5(C)CC=C(c6ccc(C(=O)O)cc6)C(C)(C)[C@@H]5CC[C@]43C)[C@@H]12`, in “in vivo [1]”, the AUC(0-t) (as a rule, the area under the concentration-time curve up to a stated or last time point) at 24 h worked out at 28.6 µM·h. The EC50 (commonly the concentration needed to bring the measured effect to its halfway point) in data set [2] is 26.1 nM; in [6] it was 27.2 nM; in [7], 5.2 nM; in [8] it was 3.3 nM. Moreover, the half-life at 1 h, 0.5 µM in “in vitro [3]” and in “in vitro [5]” was greater than 2 h in each case. For the same compound, the half-maximal cytotoxic concentration (CC50) (usually the concentration that lowers cell viability or growth by half) in “in vitro [4]” worked out at 10700 nM. Besides, the solubility (usually the concentration that dissolves in the medium under given conditions) in “physchem” is less than 1 µg/mL.

With `C=C(C)[C@@H]1CC[C@]2(NCCN3CCC(F)(F)CC3)CC[C@]3(C)[C@H](CC[C@@H]4[C@@]5(C)CC=C(c6ccc(C(=O)O)cc6)C(C)(C)[C@@H]5CC[C@]43C)[C@@H]12`, the half-life at 1 h, 0.5 µM in the data set “in vitro [3]” and in the data set “in vitro [5]” was greater than 2 h throughout. This compound also had a cytotoxic concentration (CC50) in “in vitro [4]” greater than 10000 nM. Also, the pKa (usually the pH at which an ionisable group is half protonated) in data set [9] came to 8.5. Also, the EC50 in data set [6] is 67.5 nM; in data set [7], 14.1 nM; in data set [8], 5.1 nM.

As for `C=C(C)[C@@H]1CC[C@]2(NC(=O)CN3CCS(=O)(=O)CC3)CC[C@]3(C)[C@H](CC[C@@H]4[C@@]5(C)CC=C(c6ccc(C(=O)O)cc6)C(C)(C)[C@@H]5CC[C@]43C)[C@@H]12`, the half-life at 1 h, 0.5 µM in the data set “in vitro [3]” and in “in vitro [5]” was greater than 2 h in each case. The compound also gave an AUC(0-t) at 6 h in “in vivo [10]” of 8.74 µM·h. This compound also showed a CC50 in “in vitro [4]” of 9900 nM. Moreover, the half-maximal effective concentration (EC50) in data set [6] stood at 18.9 nM; in data set [7], 3.5 nM; in data set [8], 2.1 nM.

In the data set “in vivo [1]”, `C=C(C)[C@@H]1CC[C@]2(NCCN3C[C@@H]4C[C@H]3CS4(=O)=O)CC[C@]3(C)[C@H](CC[C@@H]4[C@@]5(C)CC=C(c6ccc(C(=O)O)cc6)C(C)(C)[C@@H]5CC[C@]43C)[C@@H]12` registered an AUC(0-t) at 24 h of 27 µM·h. For the same compound, the EC50 came out at 11.1 nM in data set [2], 7.7 nM in data set [6], 2.8 nM in data set [7] and 1.9 nM in data set [8]. For the same compound, the half-life at 1 h, 0.5 µM in the data set “in vitro [3]” and in “in vitro [5]” was greater than 2 h throughout. Also, in “in vitro [4]”, half-maximal cytotoxicity (CC50) was put at 7340 nM. For the same compound, the solubility in “physchem” was less than 1 µg/mL.

As to `C=C(C)[C@@H]1CC[C@]2(NCCCN3CCS(=O)(=O)CC3)CC[C@]3(C)[C@H](CC[C@@H]4[C@@]5(C)CC=C(c6ccc(C(=O)O)cc6)C(C)(C)[C@@H]5CC[C@]43C)[C@@H]12`, the AUC(0-t) at 24 h in the data set “in vivo [1]” was determined as 9.61 µM·h. Also, the half-maximal effective concentration (EC50) came out at 23.6 nM in data set [2], 37.3 nM in data set [6], 7.5 nM in data set [7] and 3.5 nM in data set [8]. In addition, the half-life at 1 h, 0.5 µM in the data set “in vitro [3]” and in the data set “in vitro [5]” was greater than 2 h each time. Moreover, the AUC(0-t) at 6 h in the data set “in vivo [10]” came to 9.36 µM·h. The compound also registered a CC50 in the data set “in vitro [4]” of 15800 nM.

With `C=C(C)[C@@H]1CC[C@]2(NCCN3CCOCC3)CC[C@]3(C)[C@H](CC[C@@H]4[C@@]5(C)CC=C(c6ccc(C(=O)O)cc6)C(C)(C)[C@@H]5CC[C@]43C)[C@@H]12`, the half-life at 1 h, 0.5 µM in the data set “in vitro [3]” and in the data set “in vitro [5]” was greater than 2 h each time. In addition, the CC50 in “in vitro [4]” is greater than 10000 nM. Also, the pKa in data set [9] came out at 8.2. For the same compound, the values for the EC50 in [6], in data set [7] and in data set [8] were 47.4 nM, 13.2 nM and 8.3 nM, respectively.

Regarding `C=C(C)[C@@H]1CC[C@]2(NCCN3CCS(=N)(=O)CC3)CC[C@]3(C)[C@H](CC[C@@H]4[C@@]5(C)CC=C(c6ccc(C(=O)O)cc6)C(C)(C)[C@@H]5CC[C@]43C)[C@@H]12`, in the data set “in vivo [1]”, the AUC(0-t) at 24 h was found to be 20.7 µM·h. In addition, the half-life at 1 h, 0.5 µM in the data set “in vitro [3]” and in the data set “in vitro [5]” was greater than 2 h in each case. The compound also returned a CC50 in the data set “in vitro [4]” of 14000 nM. Besides, the solubility in “physchem” was less than 1 µg/mL. Besides, the EC50 worked out at 7.5 nM in data set [6], 1.5 nM in data set [7] and 1.1 nM in data set [8].
